Test results from US7524866B2, “Prevention and treatment of androgen—deprivation induced osteoporosis” (GTx, Inc., priority 2001, dated 2009).

Key:
[1] = test system: orchidectomized rats (ORX); assay: Cantilever compression test of the femoral neck (Example 4); format: in vivo, rat; conditions: 12 weeks, mean
Experimental: (§1) Eight month-old male Sprague Dawley rats were either sham-operated (SHAM) or orchidectomized (ORX). Treatment began immediately following surgery. The treatment groups were as described in Table 5. Bone strength was evaluated using a compression test at the vertebral body, a three point bending test at the femoral shaft, a compression test at the distal femur and a cantilever compression test of the femoral neck. Prior to mechanical testing, all samples were thawed in cold saline and carefully cleaned of any remaining adherent soft tissue.

[2] = test system: orchidectomized rats (ORX); assay: Three point bending test of the femoral shaft (Example 4); format: in vivo, rat; conditions: 12 weeks, mean
Experimental: as §1

[3] = test system: Orx rat; assay: Prostate weight in the Orx rat (Example 4); format: in vivo; conditions: Orx rat (Orx decreased prostate weight by 77%); FIG. 3
From the text: (§2) Eight month-old male Sprague Dawley rats were either sham-operated (SHAM) or orchidectomized (ORX). Treatment began immediately following surgery. The treatment groups were as described in Table 5.

[4] = test system: C-telopeptide of rat collagen I in serum; assay: Serum RatLaps ELISA, C-telopeptide of type I collagen, orchidectomy model (Example 3); format: in vivo; conditions: orchidectomized rats, 15 and 30 days; Toremifene 5 mg/kg/day, 17-β-estradiol 0.5 mg/kg/day s.c.; FIG. 1
Experimental: Male Sprague-Dawley rats (Harlan Sprague Dawley) were placed on study at 14-weeks of age. They were randomized and divided into five treatment groups: vehicle only (placebo, or P) after sham operation, vehicle only after orchidectomy (Orx), Toremifene (5 mg/kg/day) after sham-operation, and Toremifene after orchidectomy, and 17-β-estradiol (0.5 mg/kg/day) after orchidectomy. Test articles were delivered subcutaneously by Alzet pumps. Pumps were re-implanted every 30 days until the end of the study. Five to six animals from each group were sacrificed after 60 and 120 days of treatment, and femurs were harvested, stripped of soft tissue and muscle, and stored individually in polypropylene vials at −80° C. until analysis of bone density and mechanical strength testing. Additionally, serum was collected on days 15, 30, 60, 90 and 120, to measure markers of bone metabolism and to perform serum chemistry. […]
The assay was performed in duplicates, each 20 ul of serum as well as standards and control. […] After washing the strips 100 ul of the Chromogenic Substrate Solution was added to each well, and after 15 min the reaction was stopped and the absorbance was measured at 450 nm. The means of the duplicate absorbance determination were calculated, and a standard curve was constructed using 4-parametric logistic curve fit. Sample RatLaps concentrations were determined by interpolation.

[5] = test system: orchidectomized rats (ORX); assay: Ex vivo DXA of the femur (BMC, BA, BMD) (Example 4); format: in vivo, rat; conditions: for Distal femur Bone Area / Distal femur Bone Mineral Content / Distal femur Bone Mineral Density / Midshaft femur Bone Area / Midshaft femur Bone Mineral Content / Midshaft femur Bone Mineral Density / Proximal femur Bone Area / Proximal femur Bone Mineral Content / Proximal femur Bone Mineral Density / Whole femur Bone Area / Whole femur Bone Mineral Content / Whole femur Bone Mineral Density: ORX rats, 6 wks, mean; for bone mass of the whole femur (DXA): 6 weeks of treatment; for loss in bone mineral density at the proximal femur (DXA): 10 mg/kg/d Tor, E 0.2 mg/kg/d; for bone density at the distal femur (DXA): 10 mg/kg/d toremifene, E 0.2 mg/kg/d (p<0.05 vs. Orx+Vehicle for E)
Experimental: as §2
Ex vivo DXA analysis was performed on the vertebra (L5) using a PIXImus instrument and associated animal research software (Lunar Corporation, Madison, Wis.). Bone mineral content (BMC), bone area (BA) and bone mineral density (BMD) are reported. Ex vivo DXA analysis was performed on the femur using a pDXA Sabre and associated animal research software (Norland Medical Systems, Inc., Fort Atkinson, Wis.). BMC, BA and BMD are reported for four regions of interest: whole femur, 25% distal femur, 25% proximal femur and 50% of midshaft femur.

[6] = Toremifene 5 mg/kg/d, Estradiol 0.2 mg/kg/d

SMILES: CN(C)CCOc1ccc(/C(=C(/CCCl)c2ccccc2)c2ccccc2)cc1 [Toremifene]
- Energy ([1]; 5 mg/kg/d): 46.53 mJ
- Maximum Load ([1]; 5 mg/kg/d): 116.46 N
- Stiffness ([1]; 5 mg/kg/d): 211.77 N/mm
- Energy ([1]; 10 mg/kg/d): 44.59 mJ
- Maximum Load ([1]; 10 mg/kg/d): 117.50 N
- Stiffness ([1]; 10 mg/kg/d): 211.73 N/mm
- Elastic Modulus [2, 6]: 4505.90 MPa
- Energy [2, 6]: 83.40 mJ
- Maximum Load [2, 6]: 263.54 N
- Stiffness [2, 6]: 944.78 N/mm
- Toughness [2, 6]: 5.67 MJ/m^3
- Ultimate Strength [2, 6]: 150.45 N/mm^2
- Elastic Modulus ([2]; Toremifene 10 mg/kg/d): 4557.46 MPa
- Energy ([2]; Toremifene 10 mg/kg/d): 88.58 mJ
- Maximum Load ([2]; Toremifene 10 mg/kg/d): 272.56 N
- Stiffness ([2]; Toremifene 10 mg/kg/d): 910.47 N/mm
- Toughness ([2]; Toremifene 10 mg/kg/d): 6.16 MJ/m^3
- Ultimate Strength ([2]; Toremifene 10 mg/kg/d): 161.23 N/mm^2
- prostate weight [3]: no effect on prostate weight
- C-telopeptide levels in serum [4]: reduced the C-telopeptide levels to or below control values
- Distal femur Bone Area [5, 6]: 0.649 cm^2
- Distal femur Bone Mineral Content [5, 6]: 0.145 gm
- Distal femur Bone Mineral Density [5, 6]: 0.224 gm/cm^2
- Midshaft femur Bone Area [5, 6]: 1.086 cm^2
- Midshaft femur Bone Mineral Content [5, 6]: 0.271 gm
- Midshaft femur Bone Mineral Density [5, 6]: 0.249 gm/cm^2
- Proximal femur Bone Area [5, 6]: 0.658 cm^2
- Proximal femur Bone Mineral Content [5, 6]: 0.154 gm
- Proximal femur Bone Mineral Density [5, 6]: 0.234 gm/cm^2
- Whole femur Bone Area [5, 6]: 2.389 cm^2
- Whole femur Bone Mineral Content [5, 6]: 0.570 gm
- Whole femur Bone Mineral Density [5, 6]: 0.238 gm/cm^2
- Distal femur Bone Area ([5]; Toremifene 10 mg/kg/d): 0.659 cm^2
- Distal femur Bone Mineral Content ([5]; Toremifene 10 mg/kg/d): 0.152 gm
- Distal femur Bone Mineral Density ([5]; Toremifene 10 mg/kg/d): 0.230 gm/cm^2
- Midshaft femur Bone Area ([5]; Toremifene 10 mg/kg/d): 1.094 cm^2
- Midshaft femur Bone Mineral Content ([5]; Toremifene 10 mg/kg/d): 0.286 gm
- Midshaft femur Bone Mineral Density ([5]; Toremifene 10 mg/kg/d): 0.261 gm/cm^2
- Proximal femur Bone Area ([5]; Toremifene 10 mg/kg/d): 0.672 cm^2
- Proximal femur Bone Mineral Content ([5]; Toremifene 10 mg/kg/d): 0.164 gm
- Proximal femur Bone Mineral Density ([5]; Toremifene 10 mg/kg/d): 0.244 gm/cm^2
- Whole femur Bone Area ([5]; Toremifene 10 mg/kg/d): 2.420 cm^2
- Whole femur Bone Mineral Content ([5]; Toremifene 10 mg/kg/d): 0.601 gm
- Whole femur Bone Mineral Density ([5]; Toremifene 10 mg/kg/d): 0.248 gm/cm^2
- bone mineral density at the midshaft femur (DXA) ([5]; Orx rats, 6 weeks): did not show any effect
- bone mass of the whole femur (DXA) ([5]; Orx rats): did not exhibit any significant effect
- loss in bone mineral density at the proximal femur, as in distal femur (DXA) ([5]; Orx rats, 6 weeks, 5 mg/kg/d Tor): ineffective
- loss in bone mineral density at the proximal femur (DXA) ([5]; Orx rats, 6 weeks): somewhat helpful in preventing this loss
- bone density at the distal femur (DXA) ([5]; Orx rats, 6 weeks): prevented Orx-related loss of bone density

SMILES: C[C@]12CC[C@@H]3c4ccc(O)cc4CC[C@H]3[C@@H]1CC[C@@H]2O [17-β-Estradiol]
- Energy ([1]; 0.2 mg/kg/d): 40.07 mJ
- Maximum Load ([1]; 0.2 mg/kg/d): 114.96 N
- Stiffness ([1]; 0.2 mg/kg/d): 209.95 N/mm
- Elastic Modulus [2, 6]: 5149.41 MPa
- Energy [2, 6]: 98.61 mJ
- Maximum Load [2, 6]: 287.22 N
- Stiffness [2, 6]: 986.71 N/mm
- Toughness [2, 6]: 6.85 MJ/m^3
- Ultimate Strength [2, 6]: 172.51 N/mm^2
- prostate weight [3]: no effect on prostate weight
- C-telopeptide levels in serum [4]: reduced the C-telopeptide levels to or below control values
- Distal femur Bone Area [5, 6]: 0.674 cm^2
- Distal femur Bone Mineral Content [5, 6]: 0.162 gm
- Distal femur Bone Mineral Density [5, 6]: 0.240 gm/cm^2
- Midshaft femur Bone Area [5, 6]: 1.128 cm^2
- Midshaft femur Bone Mineral Content [5, 6]: 0.281 gm
- Midshaft femur Bone Mineral Density [5, 6]: 0.250 gm/cm^2
- Proximal femur Bone Area [5, 6]: 0.685 cm^2
- Proximal femur Bone Mineral Content [5, 6]: 0.167 gm
- Proximal femur Bone Mineral Density [5, 6]: 0.245 gm/cm^2
- Whole femur Bone Area [5, 6]: 2.480 cm^2
- Whole femur Bone Mineral Content [5, 6]: 0.609 gm
- Whole femur Bone Mineral Density [5, 6]: 0.246 gm/cm^2
- bone mineral density at the midshaft femur (DXA) ([5]; Orx rats, 6 weeks): did not show any effect
- bone mass of the whole femur (DXA) ([5]; Orx rats): did not exhibit any significant effect
- loss in bone mineral density at the proximal femur (DXA) ([5]; Orx rats, 6 weeks): somewhat helpful in preventing this loss
- bone density at the distal femur (DXA) ([5]; Orx rats, 6 weeks): significantly improved overall density
